Assay results as given in patent publication US20250382289A1, “PYRAZOLOPYRIDINE DERIVATIVE AND APPLICATION THEREOF IN MEDICINE” (XIZANG HAISCO PHARMACEUTICAL CO., LTD., priority 2022, published 2025).
Where two headings read alike, the source gives them in different places. Values belong to the molecule of their own block, whether it stands above or below them.

Experiments:
MDA-MB-436 cells = assay: Clone formation test of MDA-MB-436 cells; assay type: cell-based; conditions: 14 days, crystal violet, OD 570 nm, read-out: IC50 (nM), inhibitory activity on MDA-MB-436 cell clones
Description: In this experiment, MDA-MB-436 cells were treated by adding a test compound to detect the ability of cell clone formation. At the beginning of the experiment, MDA-MB-436 cells (ATCC, HTB-130) were added to a 96-well plate (Corning, 3599), with 500 cells per well, and they were subjected to adherent culture overnight. The next day, the compound diluted in a gradient was added, and culture was continued in a […] incubator at 37° C. On the 7th day, the old culture medium was discarded, and the test compound diluted in a gradient was added again. At the 14th day, the 96-well plate was taken out, the culture liquid was discarded, and cell clones were detected by Crystal violet Assay kit. PHERAstar FSX microplate reader (BMG LABTECH) was used for detection of OD at 570 nm. The IC50 value was calculated using GraphPad Prism software.

USP1/UAF1 = USP1/UAF1 (Homo sapiens (Human), UniProt O94782); assay: Inhibitory activity on USP1/UAF1 enzymology (ubiquitin rhodamine 110 substrate); assay type: biochemical; conditions: 0.5 nM USP1/UAF1, 500 nM ubiquitin rhodamine 110
USP1/UAF1, sequence (O94782 whole entry): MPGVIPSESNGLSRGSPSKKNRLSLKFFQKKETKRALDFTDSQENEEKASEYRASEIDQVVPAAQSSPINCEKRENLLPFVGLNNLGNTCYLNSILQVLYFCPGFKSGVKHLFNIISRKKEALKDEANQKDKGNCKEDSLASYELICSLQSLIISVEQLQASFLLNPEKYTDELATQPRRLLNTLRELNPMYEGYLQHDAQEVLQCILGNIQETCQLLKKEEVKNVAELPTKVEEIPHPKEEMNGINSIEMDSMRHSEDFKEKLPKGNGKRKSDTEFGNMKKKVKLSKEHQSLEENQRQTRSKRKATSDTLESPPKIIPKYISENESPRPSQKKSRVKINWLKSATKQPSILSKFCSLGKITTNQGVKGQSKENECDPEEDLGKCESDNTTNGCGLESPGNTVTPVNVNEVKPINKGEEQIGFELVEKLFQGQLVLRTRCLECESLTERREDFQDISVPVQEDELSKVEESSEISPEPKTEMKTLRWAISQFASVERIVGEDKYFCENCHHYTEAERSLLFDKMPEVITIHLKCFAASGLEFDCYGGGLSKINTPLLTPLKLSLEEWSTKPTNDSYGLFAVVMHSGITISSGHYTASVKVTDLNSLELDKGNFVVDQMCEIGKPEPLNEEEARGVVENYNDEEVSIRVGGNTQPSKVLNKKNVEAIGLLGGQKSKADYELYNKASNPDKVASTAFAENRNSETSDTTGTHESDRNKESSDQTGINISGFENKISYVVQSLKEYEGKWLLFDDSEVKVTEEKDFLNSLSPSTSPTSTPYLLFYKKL
USP1/UAF1, sequence (Q8TAF3 whole entry partner): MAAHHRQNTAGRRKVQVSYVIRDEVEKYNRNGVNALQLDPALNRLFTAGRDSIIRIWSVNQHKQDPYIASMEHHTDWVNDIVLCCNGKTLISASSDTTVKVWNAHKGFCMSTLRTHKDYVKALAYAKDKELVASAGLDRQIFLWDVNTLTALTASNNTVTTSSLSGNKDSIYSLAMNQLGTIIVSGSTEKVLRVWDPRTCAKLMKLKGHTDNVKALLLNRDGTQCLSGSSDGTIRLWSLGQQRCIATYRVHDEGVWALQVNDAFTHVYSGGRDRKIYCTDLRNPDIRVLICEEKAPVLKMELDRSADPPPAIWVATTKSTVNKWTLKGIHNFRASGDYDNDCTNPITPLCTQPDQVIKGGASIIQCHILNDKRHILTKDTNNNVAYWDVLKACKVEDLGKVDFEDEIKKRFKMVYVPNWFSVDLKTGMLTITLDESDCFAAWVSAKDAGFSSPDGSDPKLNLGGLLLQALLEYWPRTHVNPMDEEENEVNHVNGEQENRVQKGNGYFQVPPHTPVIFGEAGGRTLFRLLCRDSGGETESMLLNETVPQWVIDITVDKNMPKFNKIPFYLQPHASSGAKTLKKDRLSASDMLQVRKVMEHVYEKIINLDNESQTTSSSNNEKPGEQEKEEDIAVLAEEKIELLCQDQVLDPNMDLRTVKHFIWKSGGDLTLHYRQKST
Description: Ubiquitin rhodamine 110 was used as a substrate to detect the activity of the deubiquitinating enzyme USP1/UAF1 after drug treatment. The total test system was 20 μl, and the test buffer comprises 50 mM Tris-HCl (pH 7.8), 0.5 mM EDTA, 0.01% Bovine Serum Albumin, 1 mM DTT, and 0.01% Tween-20. At the beginning of the experiment, 0.5 nM USP1/UAF1 (Bio-Techne, E-568-050) protein was added to a 384-well plate (PerkinElmer, 6008269), and the test compound diluted in a gradient was then added. After incubation at room temperature for 10 min, 500 nM ubiquitin rhodamine 110 (Bio-Techne, U-555-050) was added, and the mixture was incubated at room temperature for 20 min. Enspire™ Multilabel Reader microplate reader (PerkinElmer) was used for detection at excitation light of 485 nm/emission light of 535 nm. The IC50 value was calculated using GraphPad Prism software.

[1] = Pharmacokinetic test in mice; assay type: in vivo, ICR mice; conditions: plasma, i.g. 10 mg/kg
Description: Experimental animals: Male ICR mice, 25-30 g, were purchased from Chengdu Ddossy Experimental Animals Co., Ltd.
Experimental design: On the day of the experiment, the ICR mice were randomly grouped according to their body weights. The animals were fasted with water available for 12 to 14 h one day before the administration, and were fed 4 h after the administration.
Before and after the administration, blood was taken from the orbit of the animals at specified time points and placed in an EDTAK2 centrifuge tube. The blood was centrifuged at 5000 rpm and 4° C. for 10 min to collect plasma. The blood collection time points for the intravenous group and intragastric administration group were: 0, 5 min, 15 min, 30 min, 1 h, 2 h, 4 h, 7 h, and 24 h. Before analysis and detection, all samples were stored below −60° C. The samples were analyzed quantitatively by LC-MS/MS.

[2] = Pharmacokinetic test in beagle dogs; assay type: in vivo; conditions: i.g. 5 mg/kg
Description: Experimental objective: a single dose of test compounds was administered to beagle dogs intravenously and intragastrically, and the concentrations of the test compounds in plasma of the beagle dogs were measured to evaluate pharmacokinetic characteristics of the test compounds in the beagle dogs.
Experimental animals: male beagle dogs, about 8-11 kg, were purchased from Beijing Marshall Biotechnology Co., Ltd.
Experimental method: On the day of the experiment, the beagle dogs were randomly grouped according to their body weights. The animals were fasted but with water available for 14 to 18 hours one day before administration, and were fed 4 hours after administration. The administration was performed based on the information in the following table.
Vehicle for intravenous administration: 5% DMA+5% Solutol+90% Saline; Vehicle for intragastric administration: 0.5% MC
(DMA: dimethylacetamide; Solutol: polyethylene glycol-60-hydroxystearate; Saline: physiological saline; MC: Methylcellulose solution)
Sampling: Before and after the administration, blood was taken from the jugular veins or limb veins, and placed in an EDTAK2 centrifuge tube. Centrifugation was performed at 5000 rpm at 4° C. for 10 min, and plasma was collected.
Time points for blood collection: 0, 5 min, 15 min, 30 min, 1 h, 2 h, 4 h, 6 h, 8 h, 10 h, 12 h, 24 h, 48 h, and 72 h. Before analysis and detection, all the samples were stored at −60° C. or lower. The samples were analyzed quantitatively by LC-MS/MS.

[3] = Homo sapiens, MDA-MB-436, 336 h

Compound: COc1ncnc(C2CC2)c1-c1ncc2cnn(Cc3ccc(-c4nc(C(F)(F)F)cn4C(C)C)cc3)c2c1F [Compound 1]
IC50 (MDA-MB-436 cells): < 200 nM | IC50 (USP1/UAF1): < 20 nM | Oral absorption [1]: Yes

Compound: Fc1c(-c2c(OC(F)F)ncnc2C2CC2)ncc2cnn(Cc3ccc(-c4nc(C(F)(F)F)c5n4CC4(CC4)C5)cc3)c12 [Compound 12]
Oral absorption [1]: Yes

Compound: Fc1c(-c2c(OC(F)F)ncnc2C2CC2)ncc2cnn(Cc3ccc(-c4nc(C(F)(F)F)c5n4CC(F)(F)C5)cc3)c12 [Compound 14]
Oral absorption [1]: Yes

Compound: C#CCn1cc(C(F)(F)F)nc1-c1ccc(Cn2ncc3cnc(-c4c(OC)ncnc4C4CC4)c(F)c32)cc1 [Compound 16]
IC50 (MDA-MB-436 cells; [3]): < 200 nM | IC50 (USP1/UAF1): < 20 nM | Oral absorption [1]: Yes

Compound: CC(C)n1cc(C(F)(F)F)nc1-c1ccc(Cn2ncc3cnc(-c4c(OC(F)F)ncnc4C4CC4)c(F)c32)cc1 [Compound 20]
IC50 (MDA-MB-436 cells; [3]): < 200 nM

Compound: COc1ncnc(C2CC2)c1-c1ncc2cnn(Cc3ccc(-c4nc(C(F)(F)F)c5n4CC4(CC4)C5)cc3)c2c1F [Compound 21]
Oral absorption [1]: Yes

Compound: COc1ncnc(C2CC2)c1-c1ncc2cnn(Cc3ccc(-c4nc(C(F)(F)F)c5n4[C@@H](C)CC5)cc3)c2c1F [Compound 22]
IC50 (MDA-MB-436 cells; [3]): < 200 nM | Oral absorption [1]: Yes

Compound: COc1ncnc(C2CC2)c1-c1ncc2cnn(Cc3ccc(-c4nc(C(F)(F)F)cn4C(C)C)cc3)c2n1 [Control compound A, reference compound]
bioavailability ([2]; male, dog, plasma, po): 15.8% | AUC0-t ([2]; male, dog, po, plasma, read-out: AUC0-t): 994 ng·h/mL

Now from value to molecule:

IC50 (MDA-MB-436 cells): < 200 nM | IC50 (USP1/UAF1): < 20 nM | Oral absorption [1]: Yes | F (%) [2]: 41.2% | AUC0-t ([2]; plasma): 6302 ng·h/mL
Compound: COc1ncnc(C2CC2)c1-c1ncc2cnn(CC34CCC(c5nc(C(F)(F)F)cn5C(C)C)(CC3)CC4)c2c1F [Compound 2]

IC50 (MDA-MB-436 cells): < 200 nM | IC50 (USP1/UAF1): < 20 nM
Compound: CC(C)n1cc(C(F)(F)F)nc1C12CCC(Cn3ncc4cnc(-c5c(OC(F)F)ncnc5C5CC5)c(F)c43)(CC1)CC2 [Compound 4]

Oral absorption [1]: Yes
Compound: C#CCn1cc(C(F)(F)F)nc1C12CCC(Cn3ncc4cnc(-c5c(OC)ncnc5C5CC5)c(F)c43)(CC1)CC2 [Compound 8]

IC50 (MDA-MB-436 cells; [3]): < 200 nM
Compound: Fc1c(-c2c(OC(F)F)ncnc2C2CC2)ncc2cnn(CC34CCC(c5nc(C(F)(F)F)cn5CC5CC5)(CC3)CC4)c12 [Compound 10]

IC50 (MDA-MB-436 cells; [3]): < 200 nM
Compound: [2H]C([2H])([2H])C([2H])(n1cc(C(F)(F)F)nc1C12CCC(Cn3ncc4cnc(-c5c(OC(F)F)ncnc5C5CC5)c(F)c43)(CC1)CC2)C([2H])([2H])[2H] [Compound 15]
